In ChEMBL document CHEMBL1138878 (J Med Chem, 2006):
Activity calls are given as the source filed them. The calls are words filed in the database; no cut-off is given here.

Assays:
[1] = tested on: Radical scavenging activity; test: Antioxidant activity measured as ability to react with ABTS radical cation at 15 uM by TRAP assay; assay type: functional
HEK-293T [2] = test: Loss in viability of human HEK293T cells at 15 uM after 7 hrs relative to control; assay type: functional, cell-based
[3] = tested on: Radical scavenging activity; test: Antioxidant activity measured as ability to reduce ferric tripyridyltriazine complex at 15 uM by FRAP assay; assay type: functional
HEK-293T [4] = test: Inhibition of TNF-alpha-induced NF-kappaB activation in HEK293T cells; assay type: functional, cell-based; details: Homo sapiens
BV-2 [5] = test: Suppression of LPS-stimulated COX2 mRNA expression in mouse BV2 cells at 0.15 uM; assay type: functional, cell-based
BV-2 [6] = test: Suppression of LPS-stimulated COX2 mRNA expression in mouse BV2 cells at 20 uM; assay type: functional, cell-based
BV-2 [7] = test: Suppression of LPS-stimulated COX2 mRNA expression in mouse BV2 cells at 4 uM; assay type: functional

Compound | Activity [1] | Activity (HEK-293T [2]) | Activity [3] | IC50 (HEK-293T [4]) [µM] | Activity (BV-2 [5]) | Activity (BV-2 [6]) | Activity (BV-2 [7]) [%]
COc1ccc(/C=C/c2ccc(C)cc2)cc1 | inactive | inactive | inactive | 0.9 |  |  | 
COc1ccc(/C=C/c2ccc(O)c(O)c2)cc1 | Active | inactive | Active | 0.6 |  |  | 
C(=C\c1ccc2ccccc2c1)/c1ccccc1 | inactive | inactive | inactive |  |  |  | 
COc1ccc(/C=C/c2cccc(OC)c2)cc1 | inactive | inactive | inactive | 0.6 |  |  | 
COc1ccc(/C=C/c2ccccc2Cl)cc1 | inactive | inactive | inactive | 1.5 |  |  | 
COc1ccc(/C=C/c2ccccc2F)cc1 | inactive | inactive | inactive | 0.15 | Active |  | 
COc1ccc(/C=C/c2cccc(Cl)c2)cc1 | inactive | inactive | inactive | 1 |  |  | 
COc1ccc(/C=C/c2cccc(O)c2O)cc1 | Active | inactive | Active |  |  |  | 
CN(C)c1ccc(/C=C/c2ccccc2)cc1 | Active | inactive | Active | 0.15 | Active |  | 
COc1ccc(/C=C/c2cccc(F)c2)cc1 | inactive | inactive | inactive |  |  |  | 
CCOc1ccc(/C=C/c2ccccc2)cc1 | inactive | inactive | inactive |  |  |  | 
Oc1ccc(/C=C/c2cc(O)cc(O)c2)cc1 [RESVERATROL] | Active | inactive | Active | 20 |  | Active | 50
COc1ccc(/C=C/c2cccc(C)c2)cc1 | inactive | inactive | inactive | 0.8 |  |  | 
